Test system: LTB4 release from neutrophils
Experiment: A23187 induced LTB4 release
Assay type: cell-based
Details: Neutrophil; neutrophils from healthy human donors, test drug 1 hour at 37° C., 0.3 μg/ml A23187 10 min, LTB4 ELISA; range over the group of compounds; read-out: IC50, percent inhibition of LTB4 release
Description: The compounds of the present invention are tested in one or more of the assays described herein. Standard assays are used to evaluate activity of compounds in present invention on inflammatory cells. Attenuation of agonist-induced release of lipid mediator of neutrophil chemotaxis, leukotriene B4 (LTB4), is used to evaluate inhibitory effect on neutrophils.
Venous blood was collected from healthy human donors using heparin as an anti-coagulant. Neutrophils were isolated from freshly drawn blood after dextran sedimentation and ficoll separation (Eur J. Biochem. 169, 175, 1987). 180 μl of the of neutrophil suspension (0.2×10^6 cells/ml) was taken and added 19 μL of Hank's Buffer salt solution along with 1 μL of the test drug (200 times concentrated) in a 24 well plate and incubated at 37° C. for 1 hour. 3 minutes before the end of test compound incubation, 0.25 mM Ca^++/Mg^++ were added. Then, 0.3 μg/ml A23187 (Sigma Chem, USA) was added and incubated for further 10 min at 37° C. The reaction was stopped by adding 80 μL of cold methanol and centrifuged to remove cell debris (J Pharmacol Exp Ther. 297:267, 2001). The samples were analysed for LTB4 release using LTB4 ELISA kits (Assay Design Inc., USA). The amount of LTB4 released was quantified and percent inhibition of LTB4 release was calculated with respect to the difference between the A23187 stimulated and negative control cells, to compute IC50 values.

SMILES | IC50
CCCCCCCCCCCCOCC12OC(CNC(=O)Cc3ccc(F)cc3)C(O)C1OC(C)(C)O2 [Compound 69, 1-O-Dodecyl-2,3-O-isopropylidene-6-deoxy-6-{[(4-fluorophenyl)acetyl}amino]-α-L-sorbofuranoside] | ≥ 1300 nM
CCCCCCCCCCCCOCC12OC(CNC(=O)c3ccncc3)C(O)C1OC(C)(C)O2 [Compound 78, 1-O-Dodecyl-2,3-O-isopropylidene-6-deoxy-6-{[(pyridin-4-yl)-carbonyl]-amino}-α-L-sorbofuranoside] | ≥ 1300 nM
CCCCCCCCCCCCOCC12OC(CNC(=O)Cc3ccc(Cl)c(Cl)c3)C(O)C1OC(C)(C)O2 [Compound 94, 1-O-Dodecyl-2,3-O-isopropylidene-6-deoxy-6-{[(3,4-dichlorophenyl)acetyl]amino}-α-L-sorbofuranoside] | ≥ 1300 nM
CCCCCCCCCCCCOCC12OC(CNC(=O)Cc3ccc(OC(F)(F)F)cc3)C(O)C1OC(C)(C)O2 [Compound 106, 1-O-Dodecyl-2,3-O-isopropylidene-6-deoxy-6-{[(4-trifluoromethoxyphenyl)acetyl]amino}-α-L-sorbofuranoside] | ≥ 1300 nM
CCCCCCCOCC12OC(C)C(C)(OC(=O)NS(=O)(=O)c3ccc(Cl)cc3)C1OC(C)(C)O2 [Compound 116, (4ξ)-1-O-Heptyl-2,3-O-isopropylidene-4-C-methyl-4-O-[{[(4-chlorophenyl)sulphonyl]amino}-carbonyl]-6-deoxy-α-L-erythro-hex-2-ulofuranoside] | ≥ 1300 nM
CCCCCCCOCC12OC(C)C(C)(OC(=O)NS(=O)(=O)c3ccccc3)C1OC(C)(C)O2 [Compound 117, (4ξ)-1-O-Heptyl-2,3-O-isopropylidene-4-C-methyl-4-O-[{[phenylsulphonyl]amino}carbonyl]-6-deoxy-α-L-erythro-hex-2-ulofuranoside] | ≥ 1300 nM
CCCCCCCOCC12OC(C)C(C)(OC(=O)NS(=O)(=O)c3ccc(F)cc3)C1OC(C)(C)O2 [Compound 118, (4ξ)-1-O-Heptyl-2,3-O-isopropylidene-4-C-methyl-4-O-[{[(4-fluorophenyl)sulphonyl]amino}-carbonyl]-6-deoxy-α-L-erythro-hex-2-ulofuranoside] | ≥ 1300 nM
